Data reported in patent publication US20260378560A1, “APPROACHES TO DESIGNING AND PERFORMING COMPRESSED BIOLOGICAL EXPERIMENTS AND SYSTEMS FOR IMPLEMENTING THE SAME” (EXVIVO LABS INC., priority 2023, published 2026).

Tests used:
[1] = system: SUP-B15; assay: ATP-based luminescence cell viability (CellTiter Glo), drug response score, SUP-B15; set-up: scale not given here
Text: (§1) As part of a screen, a drug could be screened at different concentrations ranging from a lowest concentration to a highest concentration. In such a scenario, multiple data structures may be obtained by the screening platform 210. […] With these multiple data structures, the analysis module 218 can generate a dose-response curve that describes the magnitude of the response of the biological target, as a function of exposure to different concentrations of the drug. Further, the analysis module 218 can calculate a metric that is indicative of the response of the biological target. In the event that the biological target is one of multiple biological targets that are introduced to the pools of drugs, the metric can be used by the screening platform 210 to better understand the relative magnitude of responses. One example of a metric is drug-response score (“DRS”). DRS can be calculated as a continuous function of multiple parameters of the non-linear dose-response curve, including the slope at the half-maximal effective concentration (also called “EC50”) and the top and bottom asymptotes of the dose-response curve. DRS can be calculated as follows: […]
(§2) where y is a continuous function of the variable dose x, a is the maximal response (i.e., the top asymptote of the curve), b is the slope of the curve, c is the IC50 (i.e., half-maximal inhibitory concentration), and d is the minimal response (i.e., the bottom asymptote of the curve). Other examples of metrics include those output by sigmoidal and Hill slide functions that, like DRS, incorporate multiple aspects of the dose-response curve into a continuous function.
(§3) Total cell viability was measured for each cancer cell line using an Adenosine TriPhosphate (“ATP”) assay, and more specifically an ATP-based luminescence assay (i.e., CellTiter Glo). Each cancer drug was screened at multiple concentrations ranging from one nanomolar (nM) to ten micromolar (UM) in order to generate a dose-response curve and calculate a drug response score (“DRS”) for each cancer cell line. The DRS was calculated as a continuous function of multiple parameters of the non-linear dose-response curve, including the slope at the half-maximal effective concentration (also called “EC50”) and the top and bottom asymptotes of the dose-response curve. […] After total cell viability was measured and DRS was calculated, the DRS of each cancer cell line in the pool was deconvolved for each cancer drug.
(§4) DRS for these anchor cell lines are bolded and italicized. Anchors can be identified based on frequency of the cell lines in pools with high DRS versus low DRS. At a high level, an anchor is predicted to be the cell line with the lowest individual DRS. In order to deconvolute individual cell line DRS values from pool DRS values, the anchor can start with an assumed DRS value of zero. Each pool can then be expressed as a polynomial of variables (cell lines in the pool) and constants (DRS value of the pool). The DRS value of each cell line can then be solved for using the anchor value and overlapping polynomial expressions. When multiple values are calculated for the final target solved from the polynomials, then the anchor has a non-zero value that can be determined based on the difference in the calculated value of the final target.
(§5) Each pool represented a co-culture of three cell lines (“Target Compression”).

[2] = system: CCRF-CFM; assay: ATP-based luminescence cell viability (CellTiter Glo), drug response score, CCRF-CFM; set-up: scale not given here; details: Target compression
Text: as §1, §2, §3, §4, §5

[3] = system: NALM-6; assay: ATP-based luminescence cell viability (CellTiter Glo), drug response score, NALM-6
Text: as §1, §2, §3, §4, §5

[4] = system: library of cancer cell lines; assay: Hit profile of cancer drugs across library of cancer cell lines (cell viability); type: cell-based; details: across cancer cell lines screened individually
Protocol: Total cell viability was measured for each cancer cell line using an Adenosine TriPhosphate (“ATP”) assay, and more specifically an ATP-based luminescence assay (i.e., CellTiter Glo). Each cancer drug was screened at multiple concentrations ranging from one nanomolar (nM) to ten micromolar (UM) in order to generate a dose-response curve and calculate a drug response score (“DRS”) for each cancer cell line. The DRS was calculated as a continuous function of multiple parameters of the non-linear dose-response curve, including the slope at the half-maximal effective concentration (also called “EC50”) and the top and bottom asymptotes of the dose-response curve. […]
Table I includes several examples of cancer drugs and their DRSs across each cancer cell line in the aforementioned experiment.

[5] = system: co-culture of three cancer cell lines; assay: Cell viability (CellTiter Glo) of compressed target pools, co-cultures of three cell lines (Target Compression); type: cell-based
Protocol: as §3, §5

[6] = system: REH; assay: ATP-based luminescence cell viability (CellTiter Glo), drug response score, REH; set-up: scale not given here
[7] = system: CCRF-CFM; assay: ATP-based luminescence cell viability (CellTiter Glo), drug response score, CCRF-CFM; set-up: scale not given here
[8] = system: MOLT-4; assay: ATP-based luminescence cell viability (CellTiter Glo), drug response score, MOLT-4
[9] = Sample compression, 5 Pick 3 pools
[10] = screened individually (Compress: None)

Q: Which DRS from deconvolution ([1]; SUP-B15, Sample compression, 5 Pick 3 pools) does the source give for `COc1c(OCCCN2CCOCC2)ccc2c1N=C(NC(=O)c1cnc(N)nc1)N1CCN=C21` [Copanlisib] here?
A: 1.80

Q: What about the DRS from deconvolution ([1]; SUP-B15, Target compression, 5 Pick 3 pools) of the same compound?
A: 1.98

Q: And the DRS from deconvolution ([1]; SUP-B15, Target compression, 6 Pick 3 pools)?
A: 3.00

Q: What about the DRS from deconvolution ([1]; SUP-B15, Target compression, 7 Pick 3 pools) of the same compound?
A: 1.91

Q: What about the DRS from deconvolution ([2]; 5 Pick 3 pools) of the same compound?
A: 15.66

Q: What about the DRS from deconvolution ([2]; 6 Pick 3 pools) of the same compound?
A: 15.88

Q: What about the DRS from deconvolution ([2]; 7 Pick 3 pools) of the same compound?
A: 15.03

Q: What about the DRS from deconvolution ([3]; NALM-6, Target compression, 7 Pick 3 pools) of the same compound?
A: 13.74

Q: What about the “drug response score (DRS)” value ([3]; NALM-6, screened individually (Compress: None)) of the same compound?
A: 13.14

Q: What about the “Hits (hit profile)” value [4] of the same compound?
A: Multiple

Q: What about the DRS of pool ([5]; 5 Pick 3, Pool 1 (REH, SUP-B15, CCRF-CFM)) of the same compound?
A: 10.53

Q: What about the DRS of pool ([5]; 5 Pick 3, Pool 2 (SUP-B15, CCRF-HSB2, MOLT-4)) of the same compound?
A: 6.47

Q: And the DRS of pool ([5]; 5 Pick 3, Pool 3 (SUP-B15, CCRF-CFM, CCRF-HSB2))?
A: 8.68

Q: And the DRS of pool ([5]; 5 Pick 3, Pool 4 (REH, CCRF-CFM, MOLT-4))?
A: 13.21

Q: What about the DRS of pool ([5]; 5 Pick 3, Pool 5 (REH, CCRF-HSB2, MOLT-4)) of the same compound?
A: 10.79

Q: And the DRS of pool ([5]; 6 Pick 3, Pool 1 (REH, CCRF-CFM, MOLT-4))?
A: 12.63

Q: What about the DRS of pool ([5]; 6 Pick 3, Pool 2 (REH, CCRF-HSB2, MOLT-4)) of the same compound?
A: 9.99

Q: What about the DRS of pool ([5]; 6 Pick 3, Pool 3 (REH, CCRF-CFM, JURKAT)) of the same compound?
A: 9.72

Q: And the DRS of pool ([5]; 6 Pick 3, Pool 4 (SUP-B15, CCRF-HSB2, JURKAT))?
A: 6.40

Q: And the DRS of pool ([5]; 6 Pick 3, Pool 5 (SUP-B15, CCRF-CFM, JURKAT))?
A: 6.40

Q: And the DRS of pool ([5]; 6 Pick 3, Pool 6 (SUP-B15, CCRF-HSB2, MOLT-4))?
A: 6.47

Q: What about the DRS of pool ([5]; 7 Pick 3, Pool 1 (SUP-B15, CCRF-CFM, JURKAT)) of the same compound?
A: 6.55

Q: What about the DRS of pool ([5]; 7 Pick 3, Pool 2 (SUP-B15, CCRF-HSB2, NALM-6)) of the same compound?
A: 7.58

Q: What about the DRS of pool ([5]; 7 Pick 3, Pool 3 (SUP-B15, CCRF-CFM, NALM-6)) of the same compound?
A: 10.22

Q: And the DRS of pool ([5]; 7 Pick 3, Pool 4 (REH, CCRF-HSB2, JURKAT))?
A: 7.17

Q: What about the DRS of pool ([5]; 7 Pick 3, Pool 5 (REH, MOLT-4, NALM-6)) of the same compound?
A: 11.88

Q: And the DRS of pool ([5]; 7 Pick 3, Pool 6 (REH, MOLT-4, JURKAT))?
A: 8.07

Q: What about the DRS of pool ([5]; 7 Pick 3, Pool 7 (CCRF-CFM, CCRF-HSB2, MOLT-4)) of the same compound?
A: 10.65

Q: What about the DRS from deconvolution [6, 9] of the same compound?
A: 12.99

Q: What about the “drug response score (DRS)” value [6, 10] of the same compound?
A: 13.24

Q: And the DRS from deconvolution [7, 9]?
A: 15.72

Q: What about the “drug response score (DRS)” value [7, 10] of the same compound?
A: 15.14

Q: And the DRS from deconvolution ([8]; MOLT-4, Sample compression, 5 Pick 3 pools)?
A: 12.24

Q: And the DRS from deconvolution ([8]; MOLT-4, Target compression, 5 Pick 3 pools)?
A: 11.02

Q: What about the DRS from deconvolution ([8]; MOLT-4, Target compression, 6 Pick 3 pools) of the same compound?
A: 8.72

Q: And the DRS from deconvolution ([8]; MOLT-4, Target compression, 7 Pick 3 pools)?
A: 9.83
